In article PMC4519239 (Bioorganic & medicinal chemistry, 2013):
Read-outs that look alike come from different tables or passages of the source.

How the values were obtained:
α4β2* nAChR = α4β2* nAChR (Rattus norvegicus, UniProt P09483+P12390); assay: Competition binding assay using
α3β4 nAChR = α3β4 nAChR (Homo sapiens, UniProt P30926+P32297); assay: Two-electrode voltage clamp, nAChRs expressed in Xenopus oocytes; type: cell-based; details: 1 or 10 µM, relative to ACh control; co-applied at 1 µM with ACh
α7 nAChR = α7 nAChR (Homo sapiens, UniProt P36544); assay: as above; type: cell-based; details: 1 or 10 µM, relative to ACh control; co-applied at 1 µM with ACh
muscle nAChR α1β1εδ = muscle nAChR α1β1εδ (Mus musculus, UniProt P02716+P04756+P20782); assay: as above; type: cell-based; details: 1 or 10 µM, relative to ACh control; co-applied at 1 µM with ACh
α4β2* = details: read-out: α4β2* Ki, cited from earlier work
α3β4* = details: read-out: α3β4* Ki, cited from earlier work
α7* = details: read-out: α7* Ki, cited from earlier work
(α1)2β1γδ = details: read-out: (α1)2β1γδ Ki, cited from earlier work
(α1)2β1γδ nAChR = (α1)2β1γδ nAChR (Tetronarce californica, UniProt P02710+P02714+P02718); assay: Competition binding assay using; set-up: species or system Torpedo californica

For CCCC(=O)N1C[C@@H]2CNC[C@@H](C2)C1.O=C(O)/C=C/C(=O)O [Compound 16, (1R,5S)-1-(3,7-diazabicyclo[3.3.1]nonan-3-yl)butan-1-one], the “fold higher affinity for the α4β2* receptor” value (α4β2* nAChR; α4β2* versus α3β4*) was “about 74 fold”, the “functional profile at α3β4*” value (α3β4 nAChR) was “Possible agonistic effects” and the “functional profile at α7” value (α7 nAChR) was “agonism”.

In the case of O=C(CC1CCCC1)N1C[C@@H]2CNC[C@@H](C2)C1.O=C(O)/C=C/C(=O)O [Compound 55, 1-((1R,5S)-3,7-diazabicyclo[3.3.1]nonan-3-yl)-2-cyclopentylethanone], the “functional profile at α3β4*” value (α3β4 nAChR) is reported as “essentially no effect”, the “functional profile at α7” value (α7 nAChR) is reported as “apparent antagonistic activity” and the “functional profile at muscle type” value (muscle nAChR α1β1εδ) is reported as “apparent antagonistic activity”.

In the case of O=C(C1CCCC1)N1C[C@@H]2CNC[C@@H](C2)C1.O=C(O)/C=C/C(=O)O [Compound 43, (1R,5S)-3,7-diazabicyclo[3.3.1]nonan-3-yl(cyclopentyl)methanone], the “functional profile at α3β4*” value (α3β4 nAChR) is reported as “Possible agonistic effects” and the “functional profile at α7” value (α7 nAChR) is reported as “agonism”.

In the case of c1cnc2cc3c(cc2n1)[C@@H]1CNC[C@H]3C1 [5 (Var), varenicline], the Ki (α4β2*; ref [42]) is listed as 0.06 nM, the Ki (α3β4*; ref [42]) is listed as 240 nM and the Ki (α7*; ref [42]) is listed as 322 nM. For the same compound, the Ki ((α1)2β1γδ; ref [42]) was 3.54 µM.

Work on O=C(N1CCC(Cc2ccccc2)CC1)N1C[C@@H]2CNC[C@@H](C2)C1 [Compound 69, (1R,5S)-3,7-diazabicyclo[3.3.1]nonan-3-yl(4-benzylpiperidin-1-yl)methanone] yielded a Ki ((α1)2β1γδ nAChR) of over 5 µM.

In the case of CS(=O)(=O)N1C[C@@H]2CNC[C@@H](C2)C1 [Compound 34, (1R,5S)-3-(methylsulfonyl)-3,7-diazabicyclo[3.3.1]nonane], the Ki ((α1)2β1γδ nAChR) is reported as over 10 µM.

For CCN(CC)C(=O)N1C[C@@H]2CNC[C@@H](C2)C1.O=C(O)/C=C/C(=O)O [Compound 42, (1R,5S)-N,N-diethyl-3,7-diazabicyclo[3.3.1]nonane-3-carboxamide], the “affinity for the α4β2* subtype in words” value (α4β2* nAChR) was “lost its affinity”.

For O=C1CCCC2[C@H]3CNC[C@H](C3)CN12 (some centres unmarked) [Compound 6, tetrahydrocytisine], the Ki (α4β2*; ref [44]) is listed as 17 nM, the Ki (α3β4*; ref [44]) is listed as 385 ± 6 nM and the Ki (α7*; ref [44]) is listed as 2000 nM.

In the case of CN(C)C(=O)N1C[C@@H]2CNC[C@@H](C2)C1.O=C(O)/C=C/C(=O)O [Compound 41, (1R,5S)-N,N-dimethyl-3,7-diazabicyclo[3.3.1]nonane-3-carboxamide], the “fold lower affinity for the α4β2* nAChR” value (α4β2* nAChR; compared to carboxamide analog 17) is reported as 10 fold.

With C1NCC2CNCC1C2 [bispidine, 3,7-diazabicyclo[3.3.1]nonane] the “functional profile at α7” value (α7 nAChR) was “weak activation”.

For O=C(N1CCCC1)N1C[C@@H]2CNC[C@@H](C2)C1.O=C(O)/C=C/C(=O)O [Compound 67, (1R,5S)-3,7-diazabicyclo[3.3.1]nonan-3-yl(pyrrodin-1-yl)methanone], the “affinity for the α4β2* subtype in words” value (α4β2* nAChR) was “not active” and the Ki ((α1)2β1γδ nAChR) was over 10 µM.

In the case of O=c1cccc2n1C[C@@H]1CNC[C@H]2C1 [3 (Cyt), cytisine], the Ki (α4β2*; ref [41],[44],[45]) is given as 0.122 nM.

In the case of CC(=O)N1C[C@@H]2C[C@@H](CN(C)C2)C1 [Compound 70, 1-((1R,5S)-7-methyl-3,7-diazabicyclo[3.3.1]nonan-3-yl)ethanone], the “fold lower affinity for the α4β2* subtype” value (α4β2* nAChR; compared to acetylbispidine 8) is reported as 35 fold.

For CN1C[C@@H]2C[C@H](C1)C1CCCC(=O)N1C2 (some centres unmarked) [Compound 7], the Ki (α4β2*; ref [44]) is listed as 34 nM, the Ki (α3β4*; ref [44]) is listed as 2450 nM and the Ki (α7*; ref [44]) is listed as 10000 nM. For the same compound, the Ki ((α1)2β1γδ; ref [44]) was over 50 µM.

In the case of O=C(O)/C=C/C(=O)O.O=C(c1cccc(Cl)c1)N1C[C@@H]2CNC[C@@H](C2)C1 [Compound 22, (1R,5S)-3,7-diazabicyclo[3.3.1]nonan-3-yl(3-chlorophenyl)methanone], the “affinity for the α4β2* subtype in words” value (α4β2* nAChR) is reported as “inactive”.

For CC(=O)N1C[C@@H]2CNC[C@@H](C2)C1.O=C(O)/C=C/C(=O)O [Compound 8, (1R, 5S)-1-(3,7-diazabicyclo[3.3.1]nonan-3-yl)ethanone], the “functional profile at α7” value (α7 nAChR) was “agonism”.

In the case of O=c1c(-c2cccnc2)ccc2n1C[C@@H]1CNC[C@H]2C1 [4 (3PC), 3-(pyridine-3-yl)-cytisine], the Ki ((α1)2β1γδ; ref [41],[44],[45]) is given as over 5 µM.

For Cl.O=S(=O)(c1ccc(Br)cc1)N1C[C@@H]2CNC[C@@H](C2)C1 [Compound 39, (1R,5S)-3-(4-bromophenylsulfonyl)-3,7-diazabicyclo[3.3.1]nonane], the “affinity for the α4β2* subtype in words” value (α4β2* nAChR) was “nonactive”.

With O=C(O)/C=C/C(=O)O.O=C(c1cccc([N+](=O)[O-])c1)N1C[C@@H]2CNC[C@@H](C2)C1 [Compound 23, (1R,5S)-3,7-diazabicyclo[3.3.1]nonan-3-yl(3-nitrophenyl)methanone] the “affinity for the α4β2* subtype in words” value (α4β2* nAChR) was “inactive”.

Compound O=[N+]([O-])c1ccc(S(=O)(=O)N2C[C@@H]3CNC[C@@H](C3)C2)cc1 [Compound 40, (1R,5S)-3-(4-nitrophenylsulfonyl)-3,7-diazabicyclo[3.3.1]nonane] has a Ki ((α1)2β1γδ nAChR) of over 10 µM.

For CCC(=O)N1C[C@@H]2CNC[C@@H](C2)C1.O=C(O)/C=C/C(=O)O [Compound 15, (1R,5S)-1-(3,7-diazabicyclo[3.3.1]nonan-3-yl)propan-1-one], the “functional profile at α3β4*” value (α3β4 nAChR) was “Possible agonistic effects”.
